Measurements published in the NIST ThermoML archive (doi:10.1021/je7002836).
Numbers after ± are expanded uncertainties.

Legend:
[1] = xn = mol fraction of the nth substance listed; conditions: 101 kPa, Liquid
[2] = molar heat capacity at constant pressure; xn = mol fraction of the nth substance listed; conditions: 101 kPa, Liquid

CCCC[n+]1cccc(C)c1.F[B-](F)(F)F [1-butyl-3-methylpyridinium tetrafluoroborate] + CCO
Conditions | mass density, [1] [kg/m3] | molar heat capacity at constant pressure, [2] [J/K/mol]
293.15 K, x1 = 0.0073 | 800.5 ± 3.5 | 113.6 ± 3.5
293.15 K, x1 = 0.0126 | 807.8 ± 3.4 | 115.2 ± 3.6
293.15 K, x1 = 0.0231 | 821.5 ± 3.3 | 119.1 ± 3.7
293.15 K, x1 = 0.0512 | 855.1 ± 2.9 | 129.4 ± 4
293.15 K, x1 = 0.1003 | 904.1 ± 2.2 | 146.4 ± 4.5
293.15 K, x1 = 0.2569 | 1010.3 ± 1.2 | 190.3 ± 5.9
293.15 K, x1 = 0.3847 | 1065.4 ± 1.9 | 223.7 ± 6.9
293.15 K, x1 = 0.4841 | 1097.1 ± 2.3 | –
293.15 K, x1 = 0.5031 | – | 252.6 ± 7.8
293.15 K, x1 = 0.5963 | 1124.9 ± 2.7 | 276.9 ± 8.6
293.15 K, x1 = 0.6919 | – | 301.6 ± 9.3
293.15 K, x1 = 0.7107 | 1148 ± 3 | –
293.15 K, x1 = 0.7784 | – | 324.5 ± 10
293.15 K, x1 = 0.7966 | 1162.2 ± 3.2 | –
293.15 K, x1 = 0.8711 | – | 350 ± 11
293.15 K, x1 = 0.8923 | – | 355.9 ± 11
293.15 K, x1 = 0.9514 | 1183.1 ± 3.5 | 372.8 ± 12
293.15 K, x1 = 1 | 1188.6 ± 3.6 | 385.8 ± 12
298.15 K, x1 = 0.0073 | 796.3 ± 3.6 | 115.4 ± 3.6
298.15 K, x1 = 0.0126 | 803.5 ± 3.5 | 117.1 ± 3.6
298.15 K, x1 = 0.0231 | 817.3 ± 3.3 | 120.9 ± 3.7
298.15 K, x1 = 0.0512 | 851 ± 2.9 | 131 ± 4.1
298.15 K, x1 = 0.1003 | 900.1 ± 2.3 | 147.5 ± 4.6
298.15 K, x1 = 0.2569 | 1006.4 ± 1.2 | 191.3 ± 5.9
298.15 K, x1 = 0.3847 | 1061.6 ± 1.9 | 224.8 ± 7
298.15 K, x1 = 0.4841 | 1093.4 ± 2.3 | –
298.15 K, x1 = 0.5031 | – | 254.2 ± 7.9
298.15 K, x1 = 0.5963 | 1121.3 ± 2.7 | 278.5 ± 8.6
298.15 K, x1 = 0.6919 | – | 303.4 ± 9.4
298.15 K, x1 = 0.7107 | 1144.5 ± 3 | –
298.15 K, x1 = 0.7784 | – | 326.6 ± 10
298.15 K, x1 = 0.7966 | 1158.7 ± 3.2 | –
298.15 K, x1 = 0.8711 | – | 352.1 ± 11
298.15 K, x1 = 0.8923 | – | 358.1 ± 11
298.15 K, x1 = 0.9514 | 1179.6 ± 3.5 | 375.1 ± 12
298.15 K, x1 = 1 | 1185.2 ± 3.6 | 387.7 ± 12
303.15 K, x1 = 0.0073 | 792 ± 3.6 | 117.3 ± 3.6
303.15 K, x1 = 0.0126 | 799.3 ± 3.5 | 119.1 ± 3.7
303.15 K, x1 = 0.0231 | 813 ± 3.4 | 122.7 ± 3.8
303.15 K, x1 = 0.0512 | 846.8 ± 3 | 132.6 ± 4.1
303.15 K, x1 = 0.1003 | 896 ± 2.3 | 148.7 ± 4.6
303.15 K, x1 = 0.2569 | 1002.6 ± 1.1 | 192.4 ± 6
303.15 K, x1 = 0.3847 | 1057.9 ± 1.8 | 226 ± 7
303.15 K, x1 = 0.4841 | 1089.7 ± 2.2 | –
303.15 K, x1 = 0.5031 | – | 255.7 ± 7.9
303.15 K, x1 = 0.5963 | 1117.7 ± 2.6 | 280.1 ± 8.7
303.15 K, x1 = 0.6919 | – | 305.3 ± 9.5
303.15 K, x1 = 0.7107 | 1140.9 ± 2.9 | –
303.15 K, x1 = 0.7784 | – | 328.9 ± 10
303.15 K, x1 = 0.7966 | 1155.2 ± 3.1 | –
303.15 K, x1 = 0.8711 | – | 354.4 ± 11
303.15 K, x1 = 0.8923 | – | 360.5 ± 11
303.15 K, x1 = 0.9514 | 1176.2 ± 3.5 | 377.4 ± 12
303.15 K, x1 = 1 | 1181.7 ± 3.5 | 390.1 ± 12
308.15 K, x1 = 0.0073 | 787.6 ± 3.7 | 119.5 ± 3.7
308.15 K, x1 = 0.0126 | 794.9 ± 3.6 | 121.2 ± 3.8
308.15 K, x1 = 0.0231 | 808.8 ± 3.4 | 124.7 ± 3.9
308.15 K, x1 = 0.0512 | 842.6 ± 3 | 134.3 ± 4.2
308.15 K, x1 = 0.1003 | 891.9 ± 2.4 | 150.1 ± 4.7
308.15 K, x1 = 0.2569 | 998.7 ± 1.1 | 193.6 ± 6
308.15 K, x1 = 0.3847 | 1054.2 ± 1.8 | 227.2 ± 7
308.15 K, x1 = 0.4841 | 1086.1 ± 2.2 | –
308.15 K, x1 = 0.5031 | – | 257.3 ± 8
308.15 K, x1 = 0.5963 | 1114.2 ± 2.6 | 281.8 ± 8.7
308.15 K, x1 = 0.6919 | – | 307.3 ± 9.5
308.15 K, x1 = 0.7107 | 1137.4 ± 2.9 | –
308.15 K, x1 = 0.7784 | – | 331.1 ± 10
308.15 K, x1 = 0.7966 | 1151.7 ± 3.1 | –
308.15 K, x1 = 0.8711 | – | 356.9 ± 11
308.15 K, x1 = 0.8923 | – | 363 ± 11
308.15 K, x1 = 0.9514 | 1172.8 ± 3.4 | 379.7 ± 12
308.15 K, x1 = 1 | 1178.3 ± 3.5 | 392.8 ± 12
313.15 K, x1 = 0.0073 | 783.3 ± 3.7 | 121.7 ± 3.8
313.15 K, x1 = 0.0126 | 790.6 ± 3.7 | 123.3 ± 3.8
313.15 K, x1 = 0.0231 | 804.5 ± 3.5 | 126.7 ± 3.9
313.15 K, x1 = 0.0512 | 838.4 ± 3.1 | 136 ± 4.2
313.15 K, x1 = 0.1003 | 887.8 ± 2.4 | 151.6 ± 4.7
313.15 K, x1 = 0.2569 | 994.8 ± 1.1 | 194.9 ± 6
313.15 K, x1 = 0.3847 | 1050.4 ± 1.7 | 228.5 ± 7.1
313.15 K, x1 = 0.4841 | 1082.4 ± 2.2 | –
313.15 K, x1 = 0.5031 | – | 258.9 ± 8
313.15 K, x1 = 0.5963 | 1110.6 ± 2.5 | 283.5 ± 8.8
313.15 K, x1 = 0.6919 | – | 309.4 ± 9.6
313.15 K, x1 = 0.7107 | 1133.9 ± 2.9 | –
313.15 K, x1 = 0.7784 | – | 333.5 ± 10
313.15 K, x1 = 0.7966 | 1148.3 ± 3.1 | –
313.15 K, x1 = 0.8711 | – | 359.5 ± 11
313.15 K, x1 = 0.8923 | – | 365.7 ± 11
313.15 K, x1 = 0.9514 | 1169.4 ± 3.4 | 382 ± 12
313.15 K, x1 = 1 | 1174.9 ± 3.5 | 395.9 ± 12
318.15 K, x1 = 0.0073 | 778.9 ± 3.8 | 124.1 ± 3.8
318.15 K, x1 = 0.0126 | 786.2 ± 3.7 | 125.6 ± 3.9
318.15 K, x1 = 0.0231 | 800.3 ± 3.5 | 128.8 ± 4
318.15 K, x1 = 0.0512 | 834.1 ± 3.1 | 137.9 ± 4.3
318.15 K, x1 = 0.1003 | 883.7 ± 2.5 | 153.2 ± 4.7
318.15 K, x1 = 0.2569 | 990.9 ± 1.2 | 196.2 ± 6.1
318.15 K, x1 = 0.3847 | 1046.7 ± 1.7 | 229.8 ± 7.1
318.15 K, x1 = 0.4841 | 1078.7 ± 2.1 | –
318.15 K, x1 = 0.5031 | – | 260.4 ± 8.1
318.15 K, x1 = 0.5963 | 1107.1 ± 2.5 | 285.3 ± 8.8
318.15 K, x1 = 0.6919 | – | 311.5 ± 9.7
318.15 K, x1 = 0.7107 | 1130.4 ± 2.8 | –
318.15 K, x1 = 0.7784 | – | 335.9 ± 10
318.15 K, x1 = 0.7966 | 1144.8 ± 3 | –
318.15 K, x1 = 0.8711 | – | 362.2 ± 11
318.15 K, x1 = 0.8923 | – | 368.5 ± 11
318.15 K, x1 = 0.9514 | 1166 ± 3.3 | 384.4 ± 12
318.15 K, x1 = 1 | 1171.6 ± 3.4 | 399.3 ± 12
